# pIC50: −log10 of the molar value.
# Biological target: T1, human adenosine A2b receptor (Homo sapiens, UniProt P29275)
# T1 sequence (P29275 1-332): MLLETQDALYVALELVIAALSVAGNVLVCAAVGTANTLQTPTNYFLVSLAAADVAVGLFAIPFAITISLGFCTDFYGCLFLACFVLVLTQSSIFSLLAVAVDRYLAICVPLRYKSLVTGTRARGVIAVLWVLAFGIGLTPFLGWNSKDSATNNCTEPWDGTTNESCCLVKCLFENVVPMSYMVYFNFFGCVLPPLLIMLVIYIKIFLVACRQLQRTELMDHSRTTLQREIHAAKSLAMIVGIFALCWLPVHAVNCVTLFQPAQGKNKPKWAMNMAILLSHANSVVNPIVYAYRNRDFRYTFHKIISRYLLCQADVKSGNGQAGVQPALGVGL
# Experiment: Cellular in vitro reporter gene test for A2b receptor activity (antagonism of NECA)
# Type: cell-based
# Parameters: expressed in transfected cells; host or cells: CHO-K1 (Chinese hamster ovary) with CRE-luciferase reporter
# Settings: recombinant CHO-K1 cells, CRE-luciferase reporter, co-incubation with EC50 concentration of NECA, 3 hours
# Description: The identification of selective antagonists of the human adenosine A2b receptor and the quantification of the efficacy and selectivity of the compounds according to the invention was carried out with the aid of recombinant cell lines for the human adenosine receptors A1, A2a, A2b and A3. These cell lines were originally derived from an ovarepithelial cell of the hamster (Chinese Hamster Ovary, CHO-K1, American Type Culture Collection, Manassas, Va. 20108, USA). In addition to the respective recombinantly expressed adenosine receptor for testing the efficacy at the A1, A2a and A2b receptors, the cell lines contain a reporter gene construct where expression of the firefly (Photinus pyralis) luciferase is under the control of a promoter which can be activated via intracellular signal cascades by stimulation of the receptors with the (not subtype-selective) adenosine receptor agonist NECA (5′-N-ethylcarboxamidoadenosine) [S. J. Hill, J. G. Baker, S. Rhees, Curr. Opin. Pharmacol. 1, 526-532 (2001)].
# In the case of the A2a and A2b cell lines, this is a minimal promoter having a plurality of cAMP-responsive elements (CRE). Stimulation of the Gs-coupled A2b or A2a receptors by NECA ultimately leads, via formation of cAMP, to CRE-dependent induction of luciferase expression, which is detected 3 hours after the start of the incubation with NECA using a detection solution in a suitable luminometer. For testing the antagonists, initially, in a pre-experiment, the concentration of NECA which, at the test day in question, results in half-maximum stimulation of luciferase expression (EC50 concentration) is determined. By joint incubation of this EC50 concentration of NECA with the substances to be tested, it is possible to determine their antagonistic activity.
# Table 1 below lists the IC50 values from the A2b receptor assay for individual working examples (in some cases as means of a plurality of independent individual determinations and rounded to two significant figures; it may also be the case here that various independent preparations of the respective working example have been used): […]
smiles,measurement,value
"Cc1c(Cn2nc[nH]c2=O)sc2c1c(=O)n(C1CC1)c(=O)n2CC1CC(F)(F)C1 [Example 206, 3-Cyclopropyl-1-[(3,3-difluorocyclobutyl)methyl]-5-methyl-6-[(5-oxo-4,5-dihydro-1H-1,2,4-triazol-1-yl)methyl]thieno[2,3-d]pyrimidine-2,4(1H,3H)-dione]",pIC50,8.21
"Cc1c(Cn2nc[nH]c2=O)sc2c1c(=O)n(C1CC1)c(=O)n2CCF [Example 196, 3-Cyclopropyl-1-(2-fluoroethyl)-5-methyl-6-[(5-oxo-4,5-dihydro-1H-1,2,4-triazol-1-yl)methyl]thieno[2,3-d]pyrimidine-2,4(1H,3H)-dione]",pIC50,6.68
"COCCn1c(=O)n(C2CCCC2)c(=O)c2c(C)c(Cn3nc[nH]c3=O)sc21 [Example 193, 3-Cyclopentyl-1-(2-methoxyethyl)-5-methyl-6-[(5-oxo-4,5-dihydro-1H-1,2,4-triazol-1-yl)methyl]thieno[2,3-d]pyrimidine-2,4(1H,3H)-dione]",pIC50,6.64
"Cc1c(CN2CCNC(=O)C2=O)sc2c1c(=O)n(C1CCCC1)c(=O)n2CCC(F)(F)F [Example 187, 3-Cyclopentyl-6-[(2,3-dioxopiperazin-1-yl)methyl]-5-methyl-1-(3,3,3-trifluoropropyl)thieno[2,3-d]pyrimidine-2,4(1H,3H)-dione]",pIC50,7.72
"Cc1c(CN2CCNC2=O)sc2c1c(=O)n(C1CC1)c(=O)n2CC1CCCO1 (racemic) [Example 37, 3-Cyclopropyl-5-methyl-6-[(2-oxoimidazolidin-1-yl)methyl]-1-(tetrahydrofuran-2-ylmethyl)thieno[2,3-d]pyrimidine-2,4(1H,3H)-dione]",pIC50,7.46
"Cc1c(Cn2[nH]ccc2=O)sc2c1c(=O)n(C1CC1C)c(=O)n2CCOC(F)(F)F (single isomer, unassigned) [Example 274, 5-Methyl-3-(2-methylcyclopropyl)-6-[(5-oxo-2,5-dihydro-1H-pyrazol-1-yl)methyl]-1-[2-(trifluoromethoxy)ethyl]thieno[2,3-d]pyrimidine-2,4(1H,3H)-dione]",pIC50,7.07
"COC(=O)N=C1NCCN1Cc1sc2c(c1C)c(=O)n(C1CC1)c(=O)n2CC1CCCO1 (single isomer, unassigned) [Example 43, Methyl [1-{[3-cyclopropyl-5-methyl-2,4-dioxo-1-(tetrahydrofuran-2-ylmethyl)-1,2,3,4-tetrahydrothieno[2,3-d]pyrimidin-6-yl]methyl}imidazolidin-2-ylidene]carbamate]",pIC50,7.92
"Cc1c(CN2CCNC2=O)sc2c1c(=O)n(C1CC1C)c(=O)n2CCCC(F)(F)F (single isomer, unassigned) [Example 243, 5-Methyl-3-(2-methylcyclopropyl)-6-[(2-oxoimidazolidin-1-yl)methyl]-1-(4,4,4-trifluorobutyl)thieno[2,3-d]pyrimidine-2,4(1H,3H)-dione]",pIC50,8.08
"Cc1c(CN2CCNC2=O)sc2c1c(=O)n(C1CC1C)c(=O)n2C[C@H]1CCCO1 (single isomer, unassigned) [Example 287]",pIC50,8.55
"COCCn1c(=O)n(C2(C)CCC2)c(=O)c2c(C)c(CN3CCNC3=NC(=O)OC)sc21 [Example 141, Methyl [1-{[1-(2-methoxyethyl)-5-methyl-3-(1-methylcyclobutyl)-2,4-dioxo-1,2,3,4-tetrahydrothieno[2,3-d]pyrimidin-6-yl]methyl}imidazolidine-2-ylidene]carbamate]",pIC50,6.96
"COC(=O)N=C1NCCN1Cc1sc2c(c1C)c(=O)n([C@H]1C[C@@H](OC)C1)c(=O)n2CCC(F)(F)F [Example 156, Methyl [1-{[3-(cis-3-methoxycyclobutyl)-5-methyl-2,4-dioxo-1-(3,3,3-trifluoropropyl)-1,2,3,4-tetrahydrothieno[2,3-d]pyrimidin-6-yl]methyl}imidazolidin-2-ylidene]carbamate]",pIC50,7.74
"Cc1c(CN2CCNC2=O)sc2c1c(=O)n(C1CC1C)c(=O)n2CC(F)F (single isomer, unassigned) [Example 236, 1-(2,2-Difluoroethyl)-5-methyl-3-(2-methylcyclopropyl)-6-[(2-oxoimidazolidin-1-yl)methyl]thieno[2,3-d]pyrimidine-2,4(1H,3H)-dione]",pIC50,8.92
"COCCn1c(=O)n(C2CC(C)(C)C2)c(=O)c2c(C)c(CN3CCNC(=O)C3=O)sc21 [Example 172, 3-(3,3-Dimethylcyclobutyl)-6-[(2,3-dioxopiperazin-1-yl)methyl]-1-(2-methoxyethyl)-5-methylthieno[2,3-d]pyrimidine-2,4(1H,3H)-dione]",pIC50,7.44
"COCCn1c(=O)n(C2CC2OC)c(=O)c2c(C)c(CN3CCNC3=O)sc21 (single isomer, unassigned) [Example 307, 3-(2-Methoxycyclopropyl)-1-(2-methoxyethyl)-5-methyl-6-[(2-oxoimidazolidin-1-yl)methyl]thieno[2,3-d]pyrimidine-2,4(1H,3H)-dione]",pIC50,8.09
"CCc1c(CN2CCNC2=O)sc2c1c(=O)n(C1(C)CC1)c(=O)n2CCOC [Example 219, 5-Ethyl-1-(2-methoxyethyl)-3-(1-methylcyclopropyl)-6-[(2-oxoimidazolidin-1-yl)methyl]thieno[2,3-d]pyrimidine-2,4(1H,3H)-dione]",pIC50,6.40
"Cc1c(CN2CCNC2=NC#N)sc2c1c(=O)n(C1COC1)c(=O)n2CCC(F)(F)F [Example 131, [1-{[5-Methyl-3-(oxetan-3-yl)-2,4-dioxo-1-(3,3,3-trifluoropropyl)-1,2,3,4-tetrahydrothieno[2,3-d]pyrimidin-6-yl]methyl}imidazolidin-2-ylidene]cyanamide]",pIC50,7.17
"Cc1c(CN2CCNC2=NC#N)sc2c1c(=O)n(C1CC3(CCC3)C1)c(=O)n2CCC(F)(F)F [Example 175, [1-{[5-Methyl-2,4-dioxo-3-(spiro[3.3]hept-2-yl)-1-(3,3,3-trifluoropropyl)-1,2,3,4-tetrahydrothieno[2,3-d]pyrimidin-6-yl]methyl}imidazolidin-2-ylidene]cyanamide]",pIC50,7.74
"COCCn1c(=O)n(C2CC2C)c(=O)c2c(C)c(CN3CCNC3=O)sc21 (single isomer, unassigned) [Example 95, 1-(2-Methoxyethyl)-5-methyl-3-(2-methylcyclopropyl)-6-[(2-oxoimidazolidin-1-yl)methyl]thieno[2,3-d]pyrimidine-2,4(1H,3H)-dione]",pIC50,7.59
"COC(=O)N=C1NCCN1Cc1sc2c(c1C)c(=O)n(C1CC1)c(=O)n2CC1CCCO1 (single isomer, unassigned) [Example 44, Methyl [1-{[3-cyclopropyl-5-methyl-2,4-dioxo-1-(tetrahydrofuran-2-ylmethyl)-1,2,3,4-tetrahydrothieno[2,3-d]pyrimidin-6-yl]methyl}imidazolidin-2-ylidene]carbamate]",pIC50,7.80
"CO[C@H]1C[C@H](n2c(=O)c3c(C)c(Cn4nc[nH]c4=O)sc3n(CCC(F)(F)F)c2=O)C1 [Example 148, 3-(trans-3-Methoxycyclobutyl)-5-methyl-6-[(5-oxo-4,5-dihydro-1H-1,2,4-triazol-1-yl)methyl]-1-(3,3,3-trifluoropropyl)thieno[2,3-d]pyrimidine-2,4(1H,3H)-dione]",pIC50,7.18
"Cc1c(Cn2cc[nH]c2=O)sc2c1c(=O)n(C1CC1)c(=O)n2CC1CC(F)(F)C1 [Example 205, 3-Cyclopropyl-1-[(3,3-difluorocyclobutyl)methyl]-5-methyl-6-[(2-oxo-2,3-dihydro-1H-imidazol-1-yl)methyl]thieno[2,3-d]pyrimidine-2,4(1H,3H)-dione]",pIC50,8.15
"Cc1c(Cn2nc[nH]c2=O)sc2c1c(=O)n(C1CC(F)(F)C1)c(=O)n2CCC(F)(F)F [Example 124, 3-(3,3-Difluorocyclobutyl)-5-methyl-6-[(5-oxo-4,5-dihydro-H-1,2,4-triazol-1-yl)methyl]-1-(3,3,3-trifluoropropyl)thieno[2,3-d]pyrimidine-2,4(1H,3H)-dione]",pIC50,7.59
"COCCn1c(=O)n([C@H]2C[C@@H](OC)C2)c(=O)c2c(C)c(CN3CCNC3=NC#N)sc21 [Example 160, [1-{[3-(cis-3-Methoxycyclobutyl)-1-(2-methoxyethyl)-5-methyl-2,4-dioxo-1,2,3,4-tetrahydrothieno[2,3-d]pyrimidin-6-yl]methyl}imidazolidin-2-ylidene]cyanamide]",pIC50,6.70
"Cc1c(CN2CCNC2=O)sc2c1c(=O)n([C@H]1C[C@@H]1C)c(=O)n2CC1CCC(F)(F)C1 (single isomer, unassigned) [Example 257]",pIC50,8.17

# From patent US20200016159A1, “N3-CYCLICALLY SUBSTITUTED THIENOURACILS AND USE THEREOF” (Bayer Aktiengesellschaft, priority 2016, published 2020)
